Reference: patent US9302988B2, “Fluoromethyl-substituted pyrrole carboxamides” (GRÜNENTHAL GMBH, priority 2012, dated 2016)

Target: T1, Human CaV2.2 channels (Homo sapiens, UniProt Q00975)
T1 construct: expressed in transfected cells
Test: Fluorescent assay for CaV2.2 channels using potassium depolarization to induce channel opening (FLIPR, Fluo-4)
Type: cell-based
Details: 3 μM test compound, 30 mM KCl, HEK293 cells stably expressing human CaV2.2; read-out: %-Inhib (CaV2.2) @3 μM @30 mM KCl
Outline: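 HEK293 cells stably co-expressing CaV2.2 with α2δ and β subunits plus Kir2.3 were Fluo-4 loaded, then preincubated 15 min at 25 °C with compound in 30 mM KCl buffer, pH 7.4. Depolarization was by adding buffer containing 210 mM KCl. Inhibition was taken from baseline-normalized peak fluorescence amplitude (ex 480/em 535 nm).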

T1 sequence (Q00975 whole entry): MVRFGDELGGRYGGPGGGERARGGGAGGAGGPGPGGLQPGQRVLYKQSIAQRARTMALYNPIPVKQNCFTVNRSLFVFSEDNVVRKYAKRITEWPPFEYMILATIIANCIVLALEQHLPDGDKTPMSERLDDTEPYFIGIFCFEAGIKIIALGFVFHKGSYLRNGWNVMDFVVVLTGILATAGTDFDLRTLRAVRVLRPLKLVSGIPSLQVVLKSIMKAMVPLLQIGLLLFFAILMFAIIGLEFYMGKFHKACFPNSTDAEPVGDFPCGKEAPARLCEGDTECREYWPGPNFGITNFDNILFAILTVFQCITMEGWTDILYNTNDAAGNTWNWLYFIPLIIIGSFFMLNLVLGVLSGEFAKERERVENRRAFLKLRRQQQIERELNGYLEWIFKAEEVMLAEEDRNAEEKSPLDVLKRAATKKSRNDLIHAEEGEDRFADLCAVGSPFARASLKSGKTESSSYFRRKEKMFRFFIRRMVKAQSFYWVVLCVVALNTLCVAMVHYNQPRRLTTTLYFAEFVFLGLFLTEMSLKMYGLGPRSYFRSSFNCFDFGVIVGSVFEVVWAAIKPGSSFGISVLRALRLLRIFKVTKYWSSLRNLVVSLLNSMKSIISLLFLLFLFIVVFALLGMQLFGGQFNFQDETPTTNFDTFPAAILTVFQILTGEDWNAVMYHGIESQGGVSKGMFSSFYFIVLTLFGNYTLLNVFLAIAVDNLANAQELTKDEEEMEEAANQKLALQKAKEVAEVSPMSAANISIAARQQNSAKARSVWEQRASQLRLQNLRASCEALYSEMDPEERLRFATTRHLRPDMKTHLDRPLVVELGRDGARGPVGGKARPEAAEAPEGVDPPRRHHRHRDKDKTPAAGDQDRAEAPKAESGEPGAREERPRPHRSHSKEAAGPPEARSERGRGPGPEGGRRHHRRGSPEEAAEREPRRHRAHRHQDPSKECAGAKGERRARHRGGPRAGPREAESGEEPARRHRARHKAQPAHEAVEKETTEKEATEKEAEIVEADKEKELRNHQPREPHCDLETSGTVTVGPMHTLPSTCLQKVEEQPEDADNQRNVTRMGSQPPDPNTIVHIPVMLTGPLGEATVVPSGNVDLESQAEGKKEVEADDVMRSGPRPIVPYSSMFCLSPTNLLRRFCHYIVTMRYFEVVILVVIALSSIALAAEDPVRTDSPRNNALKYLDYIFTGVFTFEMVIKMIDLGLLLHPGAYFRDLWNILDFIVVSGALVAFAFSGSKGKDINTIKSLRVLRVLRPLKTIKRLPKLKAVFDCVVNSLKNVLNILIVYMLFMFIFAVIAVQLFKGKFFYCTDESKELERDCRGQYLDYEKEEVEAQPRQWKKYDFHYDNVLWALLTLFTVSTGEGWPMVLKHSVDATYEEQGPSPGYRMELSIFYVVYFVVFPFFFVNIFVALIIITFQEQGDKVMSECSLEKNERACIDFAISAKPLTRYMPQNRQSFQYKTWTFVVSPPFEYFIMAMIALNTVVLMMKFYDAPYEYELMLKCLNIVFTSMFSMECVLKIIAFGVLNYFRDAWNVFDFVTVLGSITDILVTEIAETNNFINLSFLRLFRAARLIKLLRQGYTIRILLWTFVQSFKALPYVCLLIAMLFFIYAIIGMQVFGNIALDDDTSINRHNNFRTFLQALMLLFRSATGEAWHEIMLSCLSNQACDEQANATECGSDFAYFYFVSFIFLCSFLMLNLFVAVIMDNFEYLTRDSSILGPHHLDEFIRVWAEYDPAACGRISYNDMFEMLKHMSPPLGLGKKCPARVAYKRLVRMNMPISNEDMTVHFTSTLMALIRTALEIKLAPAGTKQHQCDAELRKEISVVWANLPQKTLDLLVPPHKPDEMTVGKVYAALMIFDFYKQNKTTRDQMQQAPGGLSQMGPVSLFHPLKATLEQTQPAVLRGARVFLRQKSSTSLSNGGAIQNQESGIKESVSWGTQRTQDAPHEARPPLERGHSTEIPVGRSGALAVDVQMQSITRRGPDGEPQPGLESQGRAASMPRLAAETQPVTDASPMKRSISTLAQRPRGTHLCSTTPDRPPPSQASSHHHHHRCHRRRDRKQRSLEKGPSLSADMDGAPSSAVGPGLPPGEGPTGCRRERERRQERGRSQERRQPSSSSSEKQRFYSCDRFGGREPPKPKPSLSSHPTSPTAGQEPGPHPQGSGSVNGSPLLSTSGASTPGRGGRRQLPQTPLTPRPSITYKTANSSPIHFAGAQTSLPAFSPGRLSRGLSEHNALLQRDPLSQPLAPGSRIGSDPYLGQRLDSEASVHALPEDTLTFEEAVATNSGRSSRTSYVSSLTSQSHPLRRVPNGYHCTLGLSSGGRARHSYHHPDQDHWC
T1 sequence (P54289 25-1103, further chain): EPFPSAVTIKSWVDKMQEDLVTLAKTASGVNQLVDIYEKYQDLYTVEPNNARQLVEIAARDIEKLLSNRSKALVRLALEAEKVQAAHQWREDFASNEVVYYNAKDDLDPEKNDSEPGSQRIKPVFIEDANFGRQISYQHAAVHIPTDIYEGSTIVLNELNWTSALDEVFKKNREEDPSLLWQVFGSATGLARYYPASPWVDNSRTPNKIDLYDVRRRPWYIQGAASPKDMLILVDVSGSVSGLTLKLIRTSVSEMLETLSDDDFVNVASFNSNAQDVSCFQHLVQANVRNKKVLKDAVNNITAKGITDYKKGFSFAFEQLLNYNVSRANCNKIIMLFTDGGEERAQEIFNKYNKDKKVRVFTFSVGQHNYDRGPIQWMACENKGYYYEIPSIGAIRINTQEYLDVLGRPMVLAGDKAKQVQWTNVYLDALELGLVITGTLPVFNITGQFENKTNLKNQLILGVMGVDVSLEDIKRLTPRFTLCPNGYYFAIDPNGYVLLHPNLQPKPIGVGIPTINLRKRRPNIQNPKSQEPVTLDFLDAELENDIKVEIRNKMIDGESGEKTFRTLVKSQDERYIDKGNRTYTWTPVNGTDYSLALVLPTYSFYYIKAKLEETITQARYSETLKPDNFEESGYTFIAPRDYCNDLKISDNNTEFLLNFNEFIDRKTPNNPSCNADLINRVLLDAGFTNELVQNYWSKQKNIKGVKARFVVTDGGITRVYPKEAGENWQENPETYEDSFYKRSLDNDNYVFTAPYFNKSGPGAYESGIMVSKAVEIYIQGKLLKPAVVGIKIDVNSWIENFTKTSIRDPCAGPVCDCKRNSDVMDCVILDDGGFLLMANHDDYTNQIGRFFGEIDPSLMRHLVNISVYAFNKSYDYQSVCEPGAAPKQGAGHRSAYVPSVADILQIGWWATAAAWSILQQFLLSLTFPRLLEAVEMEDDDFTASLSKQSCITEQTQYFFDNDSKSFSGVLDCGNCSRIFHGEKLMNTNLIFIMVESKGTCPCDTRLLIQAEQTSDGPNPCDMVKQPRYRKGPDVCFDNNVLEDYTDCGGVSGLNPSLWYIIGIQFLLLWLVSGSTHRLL
T1 sequence (P54284 whole entry, further chain): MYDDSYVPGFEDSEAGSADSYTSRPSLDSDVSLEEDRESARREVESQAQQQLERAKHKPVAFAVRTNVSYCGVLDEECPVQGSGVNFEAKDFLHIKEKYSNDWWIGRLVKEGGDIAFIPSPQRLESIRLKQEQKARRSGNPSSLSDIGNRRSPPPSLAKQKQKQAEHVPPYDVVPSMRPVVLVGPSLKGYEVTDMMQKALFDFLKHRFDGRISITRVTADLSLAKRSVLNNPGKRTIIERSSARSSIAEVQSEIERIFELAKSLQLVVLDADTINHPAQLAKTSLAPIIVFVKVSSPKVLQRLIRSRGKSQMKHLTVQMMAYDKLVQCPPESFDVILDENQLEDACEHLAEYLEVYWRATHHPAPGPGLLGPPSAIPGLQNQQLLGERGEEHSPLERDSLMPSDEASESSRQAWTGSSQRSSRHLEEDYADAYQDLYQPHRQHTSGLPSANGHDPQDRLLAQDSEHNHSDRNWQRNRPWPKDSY

| SMILES | inhibition at 3 µM [%] |
| --- | --- |
| Cc1c(-c2ccc(Cl)cc2F)c(C(=O)N(C)CCCS(C)(=O)=O)n(Cc2ccccc2)c1C(F)(F)F [SC-161, 1-Benzyl-3-(4-chloro-2-fluoro-phenyl)-N,4-dimethyl-N-(3-methylsulfonyl-propyl)-5-(trifluoromethyl)-1H-pyrrole-2-carboxylic acid amide] | > 95 |
| Cc1c(-c2ccc(Cl)cc2F)c(C(=O)N2CCCC2CS(C)(=O)=O)n(Cc2ccccc2)c1C(F)(F)F (centres unmarked) [SC-162, [1-Benzyl-3-(4-chloro-2-fluoro-phenyl)-4-methyl-5-(trifluoromethyl)-1H-pyrrol-2-yl]-[2-(methylsulfonyl-methyl)-pyrrolidin-1-yl]-methanone] | > 95 |
| Cc1c(-c2ccc(Cl)cc2F)c(C(=O)NCCS(C)(=O)=O)n(Cc2ccccc2)c1C(F)(F)F [SC-163, 1-Benzyl-3-(4-chloro-2-fluoro-phenyl)-4-methyl-N-(2-methylsulfonyl-ethyl)-5-(trifluoromethyl)-1H-pyrrole-2-carboxylic acid amide] | > 95 |
| Cc1c(-c2ccc(Cl)cc2F)c(C(=O)N(C)CCC2CCCO2)n(Cc2ccccc2)c1C(F)(F)F (centres unmarked) [SC-164, 1-Benzyl-3-(4-chloro-2-fluoro-phenyl)-N,4-dimethyl-N-(2-tetrahydro-furan-2-yl-ethyl)-5-(trifluoromethyl)-1H-pyrrole-2-carboxylic acid amide] | > 95 |
| Cc1c(-c2ccc(Cl)cc2F)c(C(=O)N(C)CC2CCCO2)n(Cc2ccccc2)c1C(F)(F)F (centres unmarked) [SC-165, 1-Benzyl-3-(4-chloro-2-fluoro-phenyl)-N,4-dimethyl-N-(tetrahydro-furan-2-yl-methyl)-5-(trifluoromethyl)-1H-pyrrole-2-carboxylic acid amide] | > 95 |
| Cc1c(-c2ccc(Cl)cc2F)c(C(=O)N2CCC(CO)C2)n(Cc2ccccc2)c1C(F)(F)F (centres unmarked) [SC-166, [1-Benzyl-3-(4-chloro-2-fluoro-phenyl)-4-methyl-5-(trifluoromethyl)-1H-pyrrol-2-yl]-[3-(hydroxymethyl)-pyrrolidin-1-yl]-methanone] | > 95 |
| Cc1c(-c2ccc(Cl)cc2F)c(C(=O)N(C)CC2CCOC2)n(Cc2ccccc2)c1C(F)(F)F (centres unmarked) [SC-167, 1-Benzyl-3-(4-chloro-2-fluoro-phenyl)-N,4-dimethyl-N-(tetrahydro-furan-3-yl-methyl)-5-(trifluoromethyl)-1H-pyrrole-2-carboxylic acid amide] | > 95 |
| Cc1c(-c2ccc(Cl)cc2F)c(C(=O)N(C)CC(C)(C)S(C)(=O)=O)n(Cc2ccccc2)c1C(F)(F)F [SC-168, 1-Benzyl-3-(4-chloro-2-fluoro-phenyl)-N,4-dimethyl-N-(2-methyl-2-methylsulfonyl-propyl)-5-(trifluoromethyl)-1H-pyrrole-2-carboxylic acid amide] | > 95 |
| Cc1c(-c2ccc(Cl)cc2F)c(C(=O)N(CCS(C)(=O)=O)C(C)C)n(Cc2ccccc2)c1C(F)(F)F [SC-169, 1-Benzyl-3-(4-chloro-2-fluoro-phenyl)-N-isopropyl-4-methyl-N-(2-methylsulfonyl-ethyl)-5-(trifluoromethyl)-1H-pyrrole-2-carboxylic acid amide] | 75 to 95 |
| Cc1c(-c2ccc(Cl)cc2F)c(C(=O)N2CCS(=O)(=O)C(C)(C)C2)n(Cc2ccccc2)c1C(F)(F)F [SC-170, [1-Benzyl-3-(4-chloro-2-fluoro-phenyl)-4-methyl-5-(trifluoromethyl)-1H-pyrrol-2-yl]-(2,2-dimethyl-1,1-dioxo-[1,4]thiazinan-4-yl)-methanone] | > 95 |
| Cc1c(-c2ccc(Cl)cc2F)c(C(=O)N(C)C2CCS(=O)(=O)C2)n(Cc2ccccc2)c1C(F)(F)F (centres unmarked) [SC-171, 1-Benzyl-3-(4-chloro-2-fluoro-phenyl)-N-(1,1-dioxo-thiolan-3-yl)-N,4-dimethyl-5-(trifluoromethyl)-1H-pyrrole-2-carboxylic acid amide] | > 95 |
